Test results published in patent US10342867B2 (priority 2014, dated 2019).
Marks after values point to notes of the source that are not given here.

Legend:
[1] = rabbit, in vivo
[2] = rabbit, in vivo; remark: listed apart in the source

## Monosulphate Heptadodecyl Sucrose [S12, reference compound]
[1]
  Number of animals demonstrating a detectable adverse local reaction four weeks after the first immunization: 1/6 (redness)
  Number of animals demonstrating a detectable adverse local reaction one week after the second immunization: 2/6 (redness/swelling)
[2]
  Body temperature one day after the first immunization, Mean: 39.4^a ° C.
  Body temperature one day after the second immunization, Mean: 39.7^a ° C.
  rise in body temperature one day after the first and second immunization: about 0.5 °C
